Source: BindingDB's records for patent US20230339890 (Kineta, 2023)
pIC50: −log10 of the molar value.

Target: T1, Lanosterol 14-alpha demethylase (Homo sapiens, UniProt Q16850)
T1 sequence (Q16850 whole entry): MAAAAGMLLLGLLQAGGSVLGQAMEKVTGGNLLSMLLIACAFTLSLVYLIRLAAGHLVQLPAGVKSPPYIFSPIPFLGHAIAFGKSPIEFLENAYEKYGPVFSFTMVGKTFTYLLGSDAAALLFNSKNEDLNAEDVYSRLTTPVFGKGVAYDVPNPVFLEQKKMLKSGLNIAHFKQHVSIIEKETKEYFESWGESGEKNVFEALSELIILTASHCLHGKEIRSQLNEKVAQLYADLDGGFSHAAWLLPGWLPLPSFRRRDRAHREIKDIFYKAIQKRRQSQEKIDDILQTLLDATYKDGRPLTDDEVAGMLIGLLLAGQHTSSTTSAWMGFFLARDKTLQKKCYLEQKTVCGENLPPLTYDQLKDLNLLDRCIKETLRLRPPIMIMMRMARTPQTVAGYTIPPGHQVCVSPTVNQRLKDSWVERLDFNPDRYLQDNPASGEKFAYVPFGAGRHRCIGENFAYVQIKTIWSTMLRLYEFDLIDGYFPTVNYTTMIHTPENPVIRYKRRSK
Experiment: Inhibition of CYP51A1
Excerpt: Method: Recombinant human CYP51A1 (lanosterol-14a-demethylase) enzyme was coexpressed with CYP reductase in bacterial membranes and the fluorescent substrate BOMCC (a nonnatural substrate that causes increases in fluorescence upon CYP51A1-dependent demethylation) was used to obtain 8-point dose concentration-response curves for each compound.

Row | pIC50 | Structure (SMILES)
1 | > 7.00 | CC(C)(C)OC(=O)NCCCCCN(C[C@@H](O)c1cccnc1)C(=O)Cc1ccc(C#N)c(Cl)c1 [US20230339890, Compound 142]
2 | < 6.00 | CCC(=O)N(CCc1ccc(C(F)(F)F)nc1)C[C@@H](O)c1cccnc1 [US20230339890, Compound 30]
3 | > 7.00 | CCC(=O)N(C[C@@H](O)c1cccnc1)C1CCc2cc(Cl)c(Cl)cc2C1 (some centres undefined) [US20230339890, Compound 70]
4 | > 7.00 | CC(C)(C)OC(=O)NCCCCN(C[C@@H](O)c1cccnc1)C(=O)Cc1ccc(C(F)(F)F)nc1 [US20230339890, Compound 144]
